1 molecule from US20200108112A1, “METHOD FOR PREPARING FENUGREEK EXTRACT AND PHARMACEUTICAL COMPOSITION COMPRISING FENUGREEK EXTRACT” (PRINCE PHARMACEUTICAL CO., LTD., priority 2017, published 2020) can be followed below.

This experiment concerns HepG2 cells. Briefly: Lipid droplets formation in HepG2 cells, formula of fenugreek extract (oil red-O / MTS index). It counts as cell-based. The following applies: lipid droplets induced group = 100%; treated 16 hours, then lipid droplets induced reagent 16 hours. As for the experimental part:
(1) HepG2 cells were seeded at 2.5×10^4 cells/well and incubated for 24 hours. (2) The incubated cells were divided into the following groups: Control group (CG) was added with 1% DMSO to treat the HepG2 cells for 16 hours, and then treated with cell culture medium for 16 hours. Lipid droplets induced group (LDIG) was added with 1% DMSO to treat the HepG2 cells for 16 hours, and then treated with 500 nM lipid droplets induced reagent for 16 hours. […] In addition, in a preferred embodiment, Vitamin E, SiO2, MAG and Fibersol-2 ® may be additionally added as desired. Each experiment group was respectively added to treat the HepG2 cells for 16 hours, and then treated with lipid droplets induced reagent for 16 hours. [table] (3) The above groups were examined by MTS assay and oil red-O stain, and the oil red OD value/MTS OD value was used as the index of lipid droplets.

For `NCCS(=O)(=O)O` [experiment group 7, taurine], the “percentage of the lipid droplet formation” value is on record as 72.4%.
